From article PMC10344917, “Affinity and cooperativity modulate ternary complex formation to drive targeted protein degradation” (Nature Communications, 2023)
Where two headings read alike, the source gives them in different places.

How the values were obtained:
[1] = biological target: T1, VHL/EloB/EloC (VBC) (Homo sapiens, UniProt P40337); assay: SPR binary binding of PROTAC to VBC-functionalized surface; details: SPR; error SEM, N = 3; read-out: KLP (binary binding affinity between E3 ligase VHL and PROTAC)
T1 construct: VHL (54-213), ElonginB (17-112) ElonginC (1-104); made in house
T1 sequence (Q15369 17-112): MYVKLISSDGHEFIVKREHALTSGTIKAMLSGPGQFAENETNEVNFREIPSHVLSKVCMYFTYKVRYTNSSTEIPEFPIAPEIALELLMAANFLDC
T1 sequence (Q15370 1-104, further chain): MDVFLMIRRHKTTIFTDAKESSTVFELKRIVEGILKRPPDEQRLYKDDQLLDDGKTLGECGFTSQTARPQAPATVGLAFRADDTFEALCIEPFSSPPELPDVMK
T1 sequence (P40337 54-213): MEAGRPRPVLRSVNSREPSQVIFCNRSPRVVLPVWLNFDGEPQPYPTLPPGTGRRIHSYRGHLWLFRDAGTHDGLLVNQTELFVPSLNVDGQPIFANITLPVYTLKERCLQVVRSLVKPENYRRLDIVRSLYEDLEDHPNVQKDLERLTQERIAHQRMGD
Method: SPR experiments were performed on a Biacore 8 K or T200 instrument (Cytiva). […] The running buffer during immobilization was PBS with 0.005% P20. Either high-density (3000-4000 RU) or low-density (300-400 RU) VBC-functionalized surfaces were created, followed by equilibration in the running buffer for 3 h.
PROTACs (10 mM stocks in 100% DMSO) were diluted to 400 nM in a running buffer (20 mM Tris pH 7.5, 200 mM NaCl, 0.02% P20). This stock solution was then serially diluted in the running buffer containing final 2% DMSO. […] For SMARCA2 analysis, biotinylated proteins were introduced on a Series S streptavidin (SA) sensor chip at high-density (3000-4000 RU).
(§1) Raw sensorgrams were processed by performing double reference subtraction, solvent correction, and analysis was done using Biacore Insight Evaluation Software. Kinetic analysis was performed by fitting data to a 1:1 Langmuir interaction model and a steady-state affinity model was used to evaluate equilibrium binding affinity.

[2] = biological target: T2, SMARCA2-NanoLuc (Homo sapiens, UniProt P51531); assay: NanoBRET target engagement assay, live and permeabilized HEK293 cells (SMARCA2); format: cell-based; details: SMARCA2 NanoBRET TE
T2 construct: expressed in transfected cells; host or cells: HEK293
T2 sequence (P51531 whole entry): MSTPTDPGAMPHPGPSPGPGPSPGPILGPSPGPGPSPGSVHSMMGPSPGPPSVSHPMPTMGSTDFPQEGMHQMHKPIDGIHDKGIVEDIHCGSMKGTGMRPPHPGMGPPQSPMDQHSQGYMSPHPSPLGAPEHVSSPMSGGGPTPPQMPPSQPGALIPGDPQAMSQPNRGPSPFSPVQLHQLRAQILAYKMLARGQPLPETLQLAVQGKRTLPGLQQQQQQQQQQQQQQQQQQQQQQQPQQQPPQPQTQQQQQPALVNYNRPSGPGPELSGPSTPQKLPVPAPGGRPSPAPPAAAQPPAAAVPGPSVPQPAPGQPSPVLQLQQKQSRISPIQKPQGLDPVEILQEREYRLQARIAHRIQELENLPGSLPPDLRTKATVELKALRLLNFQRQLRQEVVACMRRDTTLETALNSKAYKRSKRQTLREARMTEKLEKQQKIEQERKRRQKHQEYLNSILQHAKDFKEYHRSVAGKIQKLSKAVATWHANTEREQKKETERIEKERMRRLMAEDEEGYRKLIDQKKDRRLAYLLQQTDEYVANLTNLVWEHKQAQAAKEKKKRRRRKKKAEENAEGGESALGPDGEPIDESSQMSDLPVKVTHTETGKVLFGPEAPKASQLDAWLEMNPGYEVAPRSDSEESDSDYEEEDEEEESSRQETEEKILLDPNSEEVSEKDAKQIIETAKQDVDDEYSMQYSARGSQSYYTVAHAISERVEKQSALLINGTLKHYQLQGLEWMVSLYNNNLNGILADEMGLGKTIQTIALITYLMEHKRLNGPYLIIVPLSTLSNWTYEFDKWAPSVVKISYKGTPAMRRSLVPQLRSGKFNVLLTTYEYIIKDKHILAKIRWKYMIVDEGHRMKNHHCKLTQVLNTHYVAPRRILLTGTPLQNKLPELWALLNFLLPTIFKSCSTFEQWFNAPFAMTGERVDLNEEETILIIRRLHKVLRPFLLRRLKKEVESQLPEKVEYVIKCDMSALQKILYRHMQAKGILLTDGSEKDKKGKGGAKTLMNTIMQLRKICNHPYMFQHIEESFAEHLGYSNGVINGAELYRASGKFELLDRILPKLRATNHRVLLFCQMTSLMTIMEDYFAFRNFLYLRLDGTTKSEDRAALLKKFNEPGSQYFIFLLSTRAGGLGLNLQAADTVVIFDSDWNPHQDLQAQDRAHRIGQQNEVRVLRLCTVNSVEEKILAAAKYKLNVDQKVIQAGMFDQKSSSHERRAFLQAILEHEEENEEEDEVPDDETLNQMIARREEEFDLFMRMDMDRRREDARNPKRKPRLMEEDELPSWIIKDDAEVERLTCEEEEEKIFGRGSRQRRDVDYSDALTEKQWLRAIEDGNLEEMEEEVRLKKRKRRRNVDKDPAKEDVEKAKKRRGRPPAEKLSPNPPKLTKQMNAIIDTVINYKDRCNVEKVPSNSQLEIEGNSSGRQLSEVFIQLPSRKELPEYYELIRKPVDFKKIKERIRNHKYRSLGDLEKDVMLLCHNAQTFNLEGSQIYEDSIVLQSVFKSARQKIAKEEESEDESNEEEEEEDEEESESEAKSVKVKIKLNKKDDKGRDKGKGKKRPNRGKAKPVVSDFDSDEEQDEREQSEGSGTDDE
Method: We employed a NanoBRET-based target engagement (TE) assay as reported earlier^7 for evaluating PROTACs relative permeability. In summary, live and permeabilized HEK293 cells with SMARCA2 or BRD4-NanoLuc were used for measuring IC50 values of different PROTACs. The relative shift in the IC50 was evaluated as relative binding affinity (RBA) by taking the ratio of IC50 values of live and permeabilized cells. Availability index (AI), which is a surrogate for permeability can be calculated by taking a ratio of RBA of compounds to permeable benchmark molecules. We used SMARCA bromodomain binding ligand^8 for SMARCA2 PROTACs and JQ1^9, 10 for BRD4 PROTACs as benchmark molecules.
Relative Binding Affinity (RBA) = Live-cell TE IC50 / Permeabilized-cell TE IC50
Availability Index (AI) = RBAtest cmpd / RBApermeable benchmark
Availability Index (AI) greater than one is indicative of reduced permeability compared to the benchmark.

[3] = biological target: T3, SMARCA2^BD (Homo sapiens, UniProt P51531); assay: SPR binary binding of PROTAC to SMARCA2-functionalized surface; details: 1:1 Langmuir binding model, SEM N=3 or SD N=2, read-out: KTP (binary affinity PROTAC / SMARCA2)
T3 construct: SMARCA2^BD 1373–1511 ∆1400–1417; made in house
T3 sequence (P51531 1373-1493 isoform P51531-2): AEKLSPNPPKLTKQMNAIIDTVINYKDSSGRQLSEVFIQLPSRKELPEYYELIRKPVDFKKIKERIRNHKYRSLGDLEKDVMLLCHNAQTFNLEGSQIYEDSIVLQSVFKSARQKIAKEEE
Method: PROTACs (10 mM stocks in 100% DMSO) were diluted to 400 nM in a running buffer (20 mM Tris pH 7.5, 200 mM NaCl, 0.02% P20). This stock solution was then serially diluted in the running buffer containing final 2% DMSO. Solutions were injected in multi-cycle kinetic format without regeneration (contact time 60 s, flow rate 80 μL/min, dissociation time 120 s) using a stabilization period of 30 s and syringe wash (50% DMSO) between injections onto a high-density VBC-functionalized surface. For SMARCA2 analysis, biotinylated proteins were introduced on a Series S streptavidin (SA) sensor chip at high-density (3000-4000 RU).
as §1

[4] = biological target: T4, SMARCA2 (Homo sapiens, UniProt P51531); assay: SMARCA2 degradation, MSD assay, dose response; format: cell-based; set-up: key to AUC (area under the dose-response curve): sum of trapezoids of POC vs dose points, h = 1; details: for Dmax: A-375, SMARCA2 degraded; for Dmax / DC50: MSD assay, 2 h timepoint; for Dmax / AUC (area under the dose-response curve) / DC50: A375 cells; for AUC (area under the dose-response curve): SMARCA2 MSD assay, 2 h; for DC50: SMARCA2 degradation
T4 construct: endogenous in cells; host or cells: A375
T4 sequence (P51531 whole entry): as the sequence (P51531 whole entry) above
Method: A375 cells were treated with SMARCA2 or BRD4 degraders for 2 h (4 h for BRD4) and generated lysates. SMARCA2 or BRD4 protein was measured with a variation of a sandwich ELISA that was assembled from commercially available antibodies as well as reagents and instrumentation procured from Meso Scale Discovery (MSD). Degradation parameter, DC50, is not suitable for PROTACs that induce partial/incomplete DR curves at a fixed time point; maximum drop in target protein level (Dmax) >>0. Conversely, the area under the curve (AUC) can be calculated as a degradation activity parameter for any DR curve, and it encompasses both the degradation potency (i.e., DC50) and efficacy (i.e., Dmax) of PROTACs.
A 1:3 compound dose-response titration was diluted in growth media (1:20), added to appropriate wells of a cell culture plate (1:10) and then assay plates were incubated at 37 °C, 5% CO2.
Plates were washed with 300 µL per well MSD wash buffer (MSD R61TX-1) between each step. Following the last incubation, plates were washed with MSD wash buffer then 150 µL of MSD read buffer (MSD R92TC-2) was added to each well. Plates were immediately read on a MSD plate reader (MSD Sector Imager 6000).
MSD electrochemiluminescence signals were subtracted by the average background signal from wells with lysis buffer alone. Normalized MSD values (POC) for individual compound treated wells were acquired by dividing background-subtracted assay signal by signal from vehicle control wells (cells + 0.1% DMSO) and multiplying by 100. This POC data was graphed using a nonlinear regression curve fit xy analysis and a log(inhibitor) vs response —variable slope (four parameter) model for dose response curves (Graphpad Prism 9, San Diego, CA, USA). To calculate area under the curve, all points on the curve were connected and vertical lines were drawn from each point down to y = 0, generating a series of trapezoids. The area of each trapezoid was determined using the equation A = (1/2)(h)(b1 + b2), where h = 1 (distance between points), b1 = POC of the first point and b2 = POC of the second point. The sum of all trapezoids provides an approximate area under the curve (AUC). For half-life (t1/2) determination in time course studies, a one-phase decay model was used for curve fitting and the time at which the curve crossed 50 POC was determined through interpolation (Graphpad Prism 9, San Diego, CA, USA).

[5] = live HEK293 cells, read-out: Live-Cell TE IC50
[6] = permeabilized HEK293 cells, read-out: Permeabilized-Cell TE IC50

Kd [1] [nM]	IC50 [2, 5] [nM]	IC50 [2, 6] [nM]	Kd [3] [nM]	Dmax [4] [%]	AUC (area under the dose-response curve) [4]	DC50 [4] [nM]	SMARCA2 degradation ([4]; 2 h MSD assay)	SMILES
59 ± 5	980	740	302 ± 80	53	119	221		Cc1ncsc1-c1ccc(CNC(=O)C2C[C@@H](O)CN2C(=O)C(NC(=O)C2(F)CC2)C(C)(C)C)c(OCCc2ccc(CN3CCN(c4cc(-c5ccccc5O)nnc4N)CC3)cc2)c1 (stereo in doubt) [Compound 11, (2R,4R)-N-(2-(4-((4-(3-amino-6-(2-hydroxyphenyl)pyridazin-4-yl)piperazin-1-yl)methyl)phenethoxy)-4-(4-methylthiazol-5-yl)benzyl)-1-((R)-2-(1-fluorocyclopropane-1-carboxamido)-3,3-dimethylbutanoyl)-4-hydroxypyrrolidine-2-carboxamide, reference compound]
166 ± 15	820	750	232 ± 35	96	26	99		Cc1ncsc1-c1ccc([C@H](C)NC(=O)[C@@H]2C[C@@H](O)CN2C(=O)[C@@H](NC(=O)c2cccc(N3CCN(c4cc(-c5ccccc5O)nnc4N)CC3)c2)C(C)(C)C)cc1 [Compound 4, (2S,4R)-1-((S)-2-(3-(4-(3-Amino-6-(2-hydroxyphenyl)pyridazin-4-yl)piperazin-1-yl)benzamido)-3,3-dimethylbutanoyl)-4-hydroxy-N-((S)-1-(4-(4-methylthiazol-5-yl)phenyl)ethyl)pyrrolidine-2-carboxamide]
7 ± 2	600	50	49 ± 12	80	75	379		Cc1ncsc1-c1ccc([C@H](C)NC(=O)[C@@H]2C[C@@H](O)CN2C(=O)[C@@H](NC(=O)CCc2ccnc(N3CCN(c4cc(-c5ccccc5O)nnc4N)CC3)c2)C(C)(C)C)cc1 [Compound 8, (2S,4R)-1-((S)-2-(3-(2-(4-(3-Amino-6-(2-hydroxyphenyl)pyridazin-4-yl)piperazin-1-yl)pyridin-4-yl)propanamido)-3,3-dimethylbutanoyl)-4-hydroxy-N-((S)-1-(4-(4-methylthiazol-5-yl)phenyl)ethyl)pyrrolidine-2-carboxamide]
210 ± 18	400	200	196 ± 23	95	28	95		Cc1ncsc1-c1ccc([C@H](C)NC(=O)[C@@H]2C[C@@H](O)CN2C(=O)[C@@H](NC(=O)c2cccc(N3CCN(c4cc(-c5ccccc5O)nnc4N)CC3)n2)C(C)(C)C)cc1 [Compound 2, 6-(4-(3-Amino-6-(2-hydroxyphenyl)pyridazin-4-yl)piperazin-1-yl)-N-((S)-1-((2S,4R)-4-hydroxy-2-(((S)-1-(4-(4-methylthiazol-5-yl)phenyl)ethyl)carbamoyl)pyrrolidin-1-yl)-3,3-dimethyl-1-oxobutan-2-yl)picolinamide]
60 ± 3	200	150	95 ± 25.5	98	13	28		Cc1ncsc1-c1ccc([C@H](C)NC(=O)[C@@H]2C[C@@H](O)CN2C(=O)[C@@H](NC(=O)c2ccnc(N3CCN(c4cc(-c5ccccc5O)nnc4N)CC3)c2)C(C)(C)C)cc1 [Compound 1, 2-(4-(3-Amino-6-(2-hydroxyphenyl)pyridazin-4-yl)piperazin-1-yl)-N-((S)-1-((2S,4R)-4-hydroxy-2-(((S)-1-(4-(4-methylthiazol-5-yl)phenyl)ethyl)carbamoyl)pyrrolidin-1-yl)-3,3-dimethyl-1-oxobutan-2-yl)isonicotinamide]
11 ± 1	1410	90	14.2 ± 1.6	96	26	85		Cc1ncsc1-c1ccc([C@H](C)NC(=O)[C@@H]2C[C@@H](O)CN2C(=O)[C@@H](NC(=O)CN2CCN(c3cc(-c4ccccc4O)nnc3N)CC2)C(C)(C)C)cc1 [Compound 6, (2S,4R)-1-((S)-2-(2-(4-(3-Amino-6-(2-hydroxyphenyl)pyridazin-4-yl)piperazin-1-yl)acetamido)-3,3-dimethylbutanoyl)-4-hydroxy-N-((S)-1-(4-(4-methylthiazol-5-yl)phenyl)ethyl)pyrrolidine-2-carboxamide, reference compound]
60 ± 5	2370	5040	745 ± 134	65	100	469	~ 30%	Cc1ncsc1-c1ccc([C@H](C)NC(=O)[C@@H]2C[C@@H](O)CN2C(=O)[C@@H](NC(=O)c2ccnc(N3CCN(c4cnnc(-c5ccccc5O)c4)CC3)c2)C(C)(C)C)cc1 [Compound 10, N-((S)-1-((2S,4R)-4-Hydroxy-2-(((S)-1-(4-(4-methylthiazol-5-yl)phenyl)ethyl)carbamoyl)pyrrolidin-1-yl)-3,3-dimethyl-1-oxobutan-2-yl)-2-(4-(6-(2-hydroxyphenyl)pyridazin-4-yl)piperazin-1-yl)isonicotinamide]
9 ± 2	690	210	46 ± 8.5	55	122	850		Cc1ncsc1-c1ccc([C@H](C)NC(=O)[C@@H]2C[C@@H](O)CN2C(=O)[C@@H](NC(=O)Cc2ccnc(N3CCN(c4cc(-c5ccccc5O)nnc4N)CC3)c2)C(C)(C)C)cc1 [Compound 7, (2S,4R)-1-((S)-2-(2-(2-(4-(3-Amino-6-(2-hydroxyphenyl)pyridazin-4-yl)piperazin-1-yl)pyridin-4-yl)acetamido)-3,3-dimethylbutanoyl)-4-hydroxy-N-((S)-1-(4-(4-methylthiazol-5-yl)phenyl)ethyl)pyrrolidine-2-carboxamide]
